Structures can show the parent of a compound that is named as a salt.
Legend:
[1] = test system: Colistin-susceptible Acinetobacter; test: Growth of strain on protamine-containing medium, ACB-S; assay type: cell-based, Acinetobacter calcoaceticus-baumannii complex
Description: (§1) As in Example 1, a concentration of agar particles (BD Diagnostic, Sparks, Md., USA) in Mueller-Hinton broth medium (BD Diagnostic) was adjusted to 17 g/L or 5.1 g/L that is 30% of 17 g/L. To select a concentration of protamine, which can enhance diffusion of colistin from a disk without interfering with bacterial growth, while using the protamine at various concentrations, protamine (Sigma-Aldrich, St Louis, Mo., USA) was added to the medium at concentrations of 1 mg/ml, 700 μg/ml, 400 μg/ml, 300 μg/ml, 200 μg/ml, 150 μg/ml, 100 μg/ml, and 50 μg/ml. Each medium thus modified was solidified. Then, on a surface of each medium was evenly inoculated each of colistin-susceptible (S) or -resistant (R) Acinetobacter calcoaceticus-baumannii complex (ACB) strain, Pseudomonas aeruginosa ATCC27853 strain, and mcr-1-harboring Enterobacter aerogenes strain, and a colistin disk was placed thereon. Then, it was determined whether each strain was grown, and a diameter of a growth inhibition zone, which had been formed around the disk, was measured.

[2] = test system: PAE ATCC 27853; test: Growth of strain on protamine-containing medium, PAE; assay type: cell-based, Pseudomonas aeruginosa
Description: as §1

[3] = test system: Colistin-resistant Acinetobacter; test: Growth of strain on protamine-containing medium, ACB-R; assay type: cell-based, Acinetobacter calcoaceticus-baumannii complex
Description: as §1

[4] = test system: mcr-1-harboring Enterobacter aerogenes strain; test: Growth of strain on protamine-containing medium, mcr-1; assay type: cell-based
Description: as §1

[5] = test system: ABA, KPN and PAE strains; test: Growth of strain on guanidine hydrochloride-containing medium; assay type: cell-based; conditions: guanidine hydrochloride 5 to 50 μg/ml; agar 5.1 g/L
Description: A concentration of agar particles (BD Diagnostic, Sparks, Md., USA) in Mueller-Hinton broth medium (BD Diagnostic) was adjusted to 5.1 g/L, which is 30% of 17 g/L, and guanidine hydrochloride was added to a concentration of 500 μg/ml, 50 μg/ml, or 5 μg/ml. Then, solidification was performed. On a surface of each medium thus prepared was evenly inoculated each of colistin-susceptible (S) or -resistant (R) Acinetobacter baumannii (ABA) strain, colistin-susceptible (S) or -resistant (R) Klebsiella pnemoniae (KPN) strain, and colistin-susceptible (S) or -resistant (R) Pseudomonas aeruginosa (PAE) strain, and a colistin disk was placed thereon.

protamine
Growth ([1]; 30% agar, protamine 50 μg/ml): Grown
Growth ([1]; 30% agar, protamine 100 μg/ml): Grown
Growth ([1]; 30% agar, protamine 150 μg/ml): Grown
Growth ([1]; 100% agar, protamine 50 μg/ml): Grown
Growth ([1]; 100% agar, protamine 100 μg/ml): Grown
Growth ([1]; 100% agar, protamine 150 μg/ml): Grown
Growth ([1]; 100% agar, protamine 200 μg/ml): Grown
Growth ([1]; 100% agar, protamine 300 μg/ml): Grown
Growth ([1]; 100% agar, protamine 400 μg/ml): Grown
Growth ([1]; 100% agar, protamine 700 μg/ml): Grown
Growth ([2]; 30% agar, protamine 50 μg/ml): Grown
Growth ([2]; 30% agar, protamine 100 μg/ml): Grown
Growth ([2]; 30% agar, protamine 150 μg/ml): Grown
Growth ([2]; 30% agar, protamine 200 μg/ml): Grown
Growth ([2]; 100% agar, protamine 50 μg/ml): Grown
Growth ([2]; 100% agar, protamine 100 μg/ml): Grown
Growth ([2]; 100% agar, protamine 150 μg/ml): Grown
Growth ([2]; 100% agar, protamine 200 μg/ml): Grown
Growth ([2]; 100% agar, protamine 300 μg/ml): Grown
Growth ([2]; 100% agar, protamine 400 μg/ml): Grown
Growth ([3]; 30% agar, protamine 50 μg/ml): Grown
Growth ([3]; 30% agar, protamine 100 μg/ml): Grown
Growth ([3]; 30% agar, protamine 150 μg/ml): Grown
Growth ([3]; 100% agar, protamine 50 μg/ml): Grown
Growth ([3]; 100% agar, protamine 100 μg/ml): Grown
Growth ([3]; 100% agar, protamine 150 μg/ml): Grown
Growth ([3]; 100% agar, protamine 200 μg/ml): Grown
Growth ([3]; 100% agar, protamine 300 μg/ml): Grown
Growth ([3]; 100% agar, protamine 400 μg/ml): Grown
Growth ([4]; 30% agar, protamine 50 μg/ml): Grown
Growth ([4]; 30% agar, protamine 100 μg/ml): Grown
Growth ([4]; 30% agar, protamine 150 μg/ml): Grown
Growth ([4]; 30% agar, protamine 200 μg/ml): Grown
Growth ([4]; 100% agar, protamine 50 μg/ml): Grown
Growth ([4]; 100% agar, protamine 100 μg/ml): Grown
Growth ([4]; 100% agar, protamine 150 μg/ml): Grown
Growth ([4]; 100% agar, protamine 200 μg/ml): Grown
Growth ([4]; 100% agar, protamine 300 μg/ml): Grown
Growth ([4]; 100% agar, protamine 400 μg/ml): Grown
Growth ([4]; 100% agar, protamine 700 μg/ml): Grown

N=C(N)N [guanidine hydrochloride]
growth of the strain [5]: not inhibited

— patent publication US20210222225A1, “Medium for Disk Diffusion Method to Evaluate Antibiotic Sensitivity” (priority 2018, published 2021)
